In patent US12195490B2, “STRAD-binding agents and uses thereof” (The Regents of the University of California, priority 2020, dated 2025):

These compounds were tested on ACHN cell line (assay: drug screen of the SelleckChem kinase inhibitor library with and without 5 uM SU-329, Cell-Titer Glo after 5 days). Conditions: kinase inhibitor at 200 nM with and without 5 uM SU329; ACHN cell line; 5 days; Cell-Titer Glo.
Format: cell-based

Point of comparison: `C=CC(=O)Nc1cccc(Nc2nc(Nc3ccc(NC4CN(CCF)C4)cc3OC)ncc2C(F)(F)F)c1` [CNX-2006], log2fc 0.1218. Against it:
- CO[C@H]1C[C@@H]2CC[C@@H](C)[C@@](O)(O2)C(=O)C(=O)N2CCCC[C@H]2C(=O)O[C@H]([C@H](C)C[C@@H]2CC[C@H](n3cnnn3)[C@H](OC)C2)CC(=O)[C@H](C)/C=C(\C)[C@@H](O)[C@@H](OC)C(=O)[C@H](C)C[C@H](C)/C=C/C=C/C=C/1C [Zotarolimus (ABT-578)] — lower, −1.34
- Cc1[nH]nc2ccc(-c3cncc(OC[C@@H](N)Cc4ccccc4)c3)cc12 [A-674563] — lower, −0.6438
- CCC[C@H](NC(=O)/C(C#N)=C/c1cccc(Br)n1)c1ccccc1 [Degrasyn (WP1130)] — lower, −0.132
- NC1(Cc2ccc(Cl)cc2)CCN(c2ncnc3[nH]ccc23)CC1 [CCT128930] — lower, −0.2364
- O=C1Nc2cc(Br)ccc2/C1=C1/Nc2ccccc2/C1=N\O [BIO] — lower, −0.1795
- N#Cc1c(Oc2ccc(F)c(NC(=O)Cc3cccc(C(F)(F)F)c3)c2)ccc2nc(NC(=O)C3CC3)sc12 [TAK-632] — higher, 0.4732
- COC(=O)Nc1ccc(-c2nc(N3CCOCC3)c3cnn(C4CCN(C(=O)OC)CC4)c3n2)cc1 [WYE-354] — lower, −1.143
- COc1cc2nccc(Oc3ccc(NC(=O)C4(C(=O)Nc5ccc(F)cc5)CC4)cc3)c2cc1OC [Cabozantinib (XL184, BMS-907351)] — within 0.2 log units, 0.001197
- CNC(=O)c1cc(Oc2ccc(NC(=O)Nc3ccc(Cl)c(C(F)(F)F)c3)c(F)c2)ccn1 [Regorafenib (BAY 73-4506)] — higher, 0.8333
- CCn1c(=O)c(-c2ccc(-c3cncs3)cc2Cl)cc2cnc(Nc3ccc(N4CCN(C)CC4)cc3)nc21 [FRAX597] — within 0.2 log units, −0.0718
- C#Cc1cccc(Nc2ncnc3cc(OC)c(OCCCCCCC(=O)NO)cc23)c1 [CUDC-101, reference compound] — within 0.2 log units, 0.1269
- Cc1cc(O)c2c(c1)C(=O)c1cccc(O)c1C2=O [Chrysophanic Acid] — lower, −0.1902
- CNc1nc(Nc2cn(C(C)(C)C#N)nc2C)ncc1C(F)(F)F [GNE-0877] — within 0.2 log units, 0.3098
- COc1cc2c(Oc3ccc4[nH]c(C)cc4c3F)ncnc2cc1OCCCN1CCCC1 [Cediranib (AZD2171)] — within 0.2 log units, 0.01224
- C=CC(=O)Nc1cccc(Oc2nc(Nc3ccc(N4CCN(C)CC4)cc3)ncc2Cl)c1 [WZ3146, reference compound] — within 0.2 log units, 0.05459
- Cc1[nH]c(/C=C2\C(=O)Nc3ccccc32)c(C)c1CCC(=O)O [Orantinib (TSU-68, SU6668)] — lower, −0.2487
- CC1(C)CNc2cc(NC(=O)c3cccnc3NCc3ccncc3)ccc21.O=P(O)(O)O.O=P(O)(O)O [Motesanib Diphosphate (AMG-706)] — lower, −0.1118
- C=CC(=O)Nc1ccc2ncnc(Nc3cccc(Br)c3)c2c1 [PD168393] — higher, 0.5991
- CCS(=O)(=O)c1cccc(-c2cc(C(=O)NC3CCN(C)CC3)c(C)c3[nH]c4ncc(C)cc4c23)c1 [TAK-901] — within 0.2 log units, 0.2818
- CN(c1ncccc1CNc1nc(Nc2ccc3c(c2)CC(=O)N3)ncc1C(F)(F)F)S(C)(=O)=O [PF-562271] — higher, 0.8258
- Nc1ccc(C(=O)Nc2cccc(-c3nc(N4CCOCC4)c4oc5ncccc5c4n3)c2)cn1 [YM201636] — lower, −0.5268
- PF-477736 — lower, −2.035
- CN1CCCN(C(=O)c2cccc(-c3ccc(/C=C4/C(=O)Nc5ccc(Cl)cc54)o3)c2)CC1.Cl [CX-6258 HCl] — lower, −0.355
- CNC(=O)c1nn(C)c2c1C(C)(C)Cc1cnc(Nc3ccc(N4CCN(C)CC4)cc3)nc1-2 [Milciclib (PHA-848125)] — higher, 0.9986
- C[C@@H](N)[C@H]1CC[C@H](C(=O)Nc2ccncc2)CC1.Cl.Cl [Y-27632 2HCl] — within 0.2 log units, −0.01003
- Cn1cc(/C=C2\C(=O)Nc3cccnc32)c2ccccc21 [GW441756] — lower, −0.09333
- CN1CCN(S(=O)(=O)c2ccc(-c3cnc(N)c(C(=O)Nc4cccnc4)n3)cc2)CC1 [AZD2858] — within 0.2 log units, 0.1991
- CNc1nc(-c2ccc3c(N)n[nH]c3c2)cc(N2C[C@@H](C(=O)NC3CCCCC3)CC[C@H]2C)n1 [GSK2334470] — lower, −1.111
- CCN1CCN(Cc2ccc(-c3cc4c(N[C@H](C)c5ccccc5)ncnc4[nH]3)cc2)CC1 [AEE788 (NVP-AEE788), AEE788, reference compound] — within 0.2 log units, 0.07427
- COc1ccc(S(=O)(=O)N(CCO)c2ccccc2CN(C)C/C=C/c2ccc(Cl)cc2)cc1.O=P(O)(O)O [KN-93 Phosphate] — within 0.2 log units, 0.02491
- NC(=O)Nc1cc(-c2cccc(F)c2)sc1C(=O)N[C@H]1CCCNC1 [AZD7762] — higher, 0.8568
- O=C(NC1CCNCC1)c1n[nH]cc1NC(=O)c1c(Cl)cccc1Cl [AT7519] — lower, −1.085
- O=C(NCc1ccccc1)c1csc(Nc2ccncn2)n1 [Thiazovivin] — lower, −0.4963
- Cc1[nH]c(/C=C2\C(=O)Nc3ccc(S(=O)(=O)N(C)c4cccc(Cl)c4)cc32)c(C)c1C(=O)N1CCN(C)CC1 [SU11274] — within 0.2 log units, 0.1013
- Cc1c(F)cc(C(=O)NC2CC2)cc1-c1ccc(C(=O)NCC(C)(C)C)cn1 [Losmapimod (GW856553X)] — lower, −0.5236
- C=CC(=O)Nc1ccc2ncnc(Nc3ccc(OCc4cccc(F)c4)c(Cl)c3)c2c1 [AST-1306, reference compound] — within 0.2 log units, 0.0584
- Cn1cnc2c(F)c(Nc3ccc(Br)cc3Cl)c(C(=O)NOCCO)cc21 [Selumetinib (AZD6244), selumetinib, reference compound] — higher, 0.357
- COCCOc1ccc2c(c1)ncn2-c1ccc2cccc(N3CCC(N)CC3)c2n1 [CP-673451] — higher, 0.4234
- C[C@@H]1COC(Nc2ccc3ncnc(Nc4ccc(OCc5nccs5)c(Cl)c4)c3c2)=N1 [Varlitinib] — higher, 0.7999
- C=CC(=O)Nc1cccc(Oc2nc(Nc3ccc(N4CCN(C)CC4)cc3OC)ncc2Cl)c1 [WZ4002, reference compound] — within 0.2 log units, −0.07545
- Cc1ccc(C(=O)Nc2cccc(C(F)(F)F)c2)cc1Nc1nc(-c2cccnc2)nc2c1cnn2C [NVP-BHG712] — within 0.2 log units, 0.02396
- C#Cc1cccc(Nc2ncnc3cc4c(cc23)OCCOCCOCCO4)c1 [Icotinib] — within 0.2 log units, 0.1182
- Cc1cc(Nc2cc(N3CCN(C)CC3)nc(/C=C/c3ccccc3)n2)n[nH]1 [ENMD-2076] — higher, 0.6799
- CC(C)n1nc(-c2cc3cc(O)ccc3[nH]2)c2c(N)ncnc21 [Torkinib (PP242)] — lower, −0.3157
- O=c1cc(-c2cccc3c2Sc2ccccc2S3)oc(N2CCOCC2)c1 [KU-55933 (ATM Kinase Inhibitor)] — within 0.2 log units, 0.3053
- N#C/C(=C(/N)Sc1ccc(N)cc1)c1ccccc1C(F)(F)F [SL-327] — lower, −0.2882
- Cc1ccc(Nc2nccc(N(C)c3ccc4c(C)n(C)nc4c3)n2)cc1S(N)(=O)=O.Cl [Pazopanib HCl (GW786034 HCl)] — within 0.2 log units, 0.1817
- C[C@@]1(C(=O)Nc2ccc(F)nc2)CCCN1c1nc(Nc2cc(C3CC3)n[nH]2)c2cccn2n1 [BMS-754807] — lower, −1.139
- Nc1nc(N)c(N=O)c(OCC2CCCCC2)n1 [NU6027] — lower, −0.2463
- O=C(Nc1ccc(OC(F)(F)F)cc1)c1sccc1NCc1ccnc2ccccc12 [OSI-930] — lower, −0.2273
